Assay results from patent US20090203892A1, “Retrotransposon Inhibition in Therapy” (ISTITUTO SUPERIORE DI SANITA, priority 2004, published 2009).

Key:
A-375 melanoma = assay: Cell growth under prolonged exposure to RT inhibitors; format: cell-based, Human; conditions: for reversibility of growth inhibition: after removal of RT inhibitors, within one or two 96 h-cycles; for cell growth: nevirapine 350 μM, efavirenz 15 μM, five 96 h-cycles
Method: (§1) Human A-375 melanoma (ATCC-CRL-1619), TVM-A12 primary melanoma-derived (20), HT29 adenocarcinoma (ATCC HTB-38), H69 small cell lung carcinoma (SCLC) (ATCC HTB119), and PC3 prostate carcinoma (ATCC CRL-1435) cell lines were seeded in six-well plates at a density of 10^4 to 5×10^4 cells/well and cultured in DMEM or RPMI1640 medium with 10% fetal bovine serum. Nevirapine and Efavirenz were purified from commercially available Viramune (Boehringer-Ingelheim) and Sustiva (Bristol-Myers Squibb) as described (18). The drugs were made 350 and 15 μM in dimethyl sulfoxide (DMSO, Sigma-Aldrich), respectively, and added to cells 5 h after seeding; the same DMSO volume (0.2% final concentration) was added to controls. Fresh RT inhibitor-containing medium was changed every 48 h. Cells were harvested every 96 h, counted in a Burker chamber (two countings/sample) and replated at the same density.

PC3 prostate carcinoma = assay: as above; format: cell-based, Human; conditions: for reversibility of growth inhibition: after removal of RT inhibitors, within one or two 96 h-cycles; for cell growth: nevirapine 350 μM, efavirenz 15 μM, five 96 h-cycles
Method: as §1

[1] = system: TVM-A12 primary melanoma-derived cell line; assay: as above; format: cell-based, Human; conditions: for reversibility of growth inhibition: after removal of RT inhibitors, within one or two 96 h-cycles; for cell growth: nevirapine 350 μM, efavirenz 15 μM, five 96 h-cycles
Method: as §1

A-375 melanoma cells = assay: Morphological differentiation (phase contrast, SEM, confocal microscopy); format: cell-based, Human; conditions: compared to DMSO-treated controls
Method: (§2) A-375 and TVM-A12 cells were fixed with 4% para-formaldehyde for 10 min and permeabilized in 0.2% Triton-X 100 in PBS for 5 min. […] Confocal sections were taken at 0.5-1 μm intervals. A-375 and TVM-A12 cells were fixed in 2.5% glutaraldehyde in 0.1 M Millonig's phosphate buffer. After washing, cells were post-fixed with 1% OsO4 (1 h, 4° C.) in MPB and dehydrated using increasing acetone concentrations. Samples were critical-point dried using liquid CO2 and sputter-coated with gold before examination on a Stereoscan 240 scanning electron microscope (Cambridge Instr., Cambridge, UK).

[2] = system: E-cadherin, c-myc, bcl-2 and cyclin D1 genes in A-375 melanoma cells; assay: Gene expression by semiquantitative RT-PCR in RT-inhibited cultures; format: cell-based, Human; conditions: four cycles, compared to controls
Method: Each oligo pair was used in sequential amplification series with increasing numbers (25 to 40) of cycles. PCR products were electrophoresed, transferred to membranes and hybridized for 16 h at 42 C.° with [^32P]γ-ATP end-labelled internal oligonucleotides. The intensity of the amplification signal was measured by densitometry in at least three independent experiments for each gene. [table] […] This was investigated in semiquantitative RT-PCR analysis of cultures treated with DMSO only, or nevirapine or efavirenz for four cycles. In A-375 melanoma cells, we focussed on a set of four genes: the E-cadherin gene, involved in cell-cell adhesion and expressed in differentiated but not in tumor cells (24); and the c-myc, bcl-2 (25) and cyclin D1 (26) genes, which are directly implicated in melanoma cell proliferation and tumor growth.

A-375 melanoma xenograft = assay: Human tumor xenograft growth in athymic nude mice; format: in vivo; conditions: 20 mg/kg s.c. daily five days a week, start one day or one week after inoculation; vs untreated
Method: (§3) Controls were injected with 50% DMSO.

[3] = system: H69 small cell lung carcinoma xenograft; assay: Human tumor xenograft growth in athymic nude mice; format: in vivo; conditions: 20 mg/kg s.c. daily five days a week, start one day or one week after inoculation; vs untreated
Method: as §3

HT29 colon xenograft = assay: Human tumor xenograft growth in athymic nude mice; format: in vivo
Method: as §3

PC3 xenograft = assay: Human tumor xenograft growth in athymic nude mice; format: in vivo
Method: as §3

[4] = Method: Five-week old athymic nude mice (Harlan, Italy), kept in accordance with the European Union guidelines, were inoculated sub-cutaneously with A-375 melanoma (4×10^6), H-69 (10^7), PC3 (2×10^6) and HT-29 (10^6) cells in 100 μl PBS. […] Controls were injected with 50% DMSO. Treatment started one day or one week after tumor implant, and, in some experiments, was discontinued after 14 days. Tumor growth was monitored every other day by caliper measurements; volumes were calculated using the formula: […]
Cells were inoculated subcutaneously in the limb of athymic nude mice.

[5] = Preliminary in vivo assays of RT inhibitors
[6] = system: PC3 prostate cancer cells; assay: Tumorigenicity of efavirenz-pretreated PC3 cells inoculated in nude mice; format: in vivo
Method: as §3
We also investigated whether pretreatment of transformed cells with efavirenz would modify the tumorigenic potential of derived xenografts. PC3 prostate cancer cells were cultured with 20 μM efavirenz for two 96 h-cycles, a time that was sufficient for induction of the PSA and AR genes (FIG. 3B), and subsequently inoculated in nude mice.
Untreated cells were inoculated in parallel batches of animals. Efavirenz-pretreated, or untreated, PC3 cell xenografts were then either continuously treated with efavirenz in vivo or were left untreated. […] As summarized in FIG. 6 B, efavirenz-pretreated PC3 cells developed slowly-growing xenografts in 65% of the inoculated animals, compared to 100% using untreated cells. […] Thus, efavirenz attenuates the tumorigenic potential of transformed cells.

endogenous RT = conditions: non-infected cells in vitro (ref. 19); cited from earlier work
primary TVM-A12 cells = assay: Morphological differentiation (phase contrast, SEM, confocal microscopy); format: cell-based, Human; conditions: compared to untreated cells
Method: as §2

[7] = 20 mg/kg s.c. daily five days a week, start one day or one week after inoculation, vs untreated
[8] = treated from day one, treatment discontinuation after day 15

Structure (SMILES) | reversibility of growth inhibition (A-375 melanoma) | cell growth (A-375 melanoma) | reversibility of growth inhibition (PC3 prostate carcinoma) | cell growth (PC3 prostate carcinoma) | reversibility of growth inhibition [1] | cell growth [1] | morphological differentiation (A-375 melanoma cells) | inhibition of the enzymatic activity of the endogenous RT (endogenous RT) | other results
O=C1Nc2ccc(Cl)cc2[C@@](C#CC2CC2)(C(F)(F)F)O1 [efavirenz, Efavirenz] | reversible | effectively reduce cell growth | reversible | effectively reduce cell growth | reversible | effectively reduce cell growth | became evident within four-five days | inhibit the enzymatic activity of the endogenous RT | expression of the cyclin D1 gene [2]: failed to down-regulate cyclin D1 expression; tumor growth (A-375 melanoma xenograft): markedly reduced; tumor growth [3]: markedly reduced; tumor growth (HT29 colon xenograft; [7]): markedly reduced; reversibility of inhibition of tumor growth (HT29 colon xenograft; [8]): reversible in vivo; tumor growth (PC3 xenograft; [7]): markedly reduced; reversibility of inhibition of tumor growth (PC3 xenograft; [8]): reversible in vivo; animal death or signs of toxicity ([4]; 4 to 40 mg/kg, all animal groups): no animal death or explicit signs of toxicity in any of the groups; animals with significant decrease of body weight ([4]; group treated with 40 mg/kg): more than 60 % of animals; in vivo effectiveness relative to nevirapine [5]: higher in vivo effectiveness than nevirapine; inoculated animals developing xenografts ([6]; cells pretreated with 20 μM efavirenz for two 96 h-cycles, no treatment in vivo, 100% using untreated cells, 30 days): 65 % of the inoculated animals; xenograft growth ([6]; efavirenz-pretreated cells, no treatment in vivo): xenografts grew more slowly; xenograft growth ([6]; pretreated cells and further treated with efavirenz in vivo): the growth curve was flat; animals developing a tumor ([6]; pretreated cells and further treated with efavirenz in vivo, 30 days): 40 % of the animals
Cc1ccnc2c1NC(=O)c1cccnc1N2C1CC1 [nevirapine, Nevirapine] | reversible | effectively reduce cell growth | reversible | effectively reduce cell growth | reversible | effectively reduce cell growth | became evident within four-five days | inhibit the enzymatic activity of the endogenous RT | morphological differentiation (primary TVM-A12 cells): formed instead typical branched dendrites
